Results taken from ChEMBL document CHEMBL6083244, “Identification of 3-methyl-1-(3-methylpyridin-2-yl)-1H-pyrazol-5-ol as promising neuroprotective agent” (Bioorg Med Chem Lett, 2024).
Converted amounts (≈) assume the structure as drawn. The source made the active and inactive calls. No cut-off for these calls is given here.

Columns and labels:
[1] = Antioxidant activity assessed as DPPH radical scavenging activity; assay type: functional
[2] = Antioxidant activity assessed as ABTS radical scavenging activity; assay type: functional
[3] = Antioxidant activity assessed as oxygen radical scavenging by measuring trolox equivalents; assay type: functional
[4] = Antioxidant activity assessed as DPPH radical scavenging activity at 8 uM relative to control; assay type: functional
[5] = tested on: SH-SY5Y; assay: Neuroprotective activity against OGD/R induced cell injury in human SH-SY5Y cells assessed as increase in cell survival rate at 1 uM (reference value: 63.22 +/- 2.12%); assay type: functional; details: read-out: Survival
[6] = Antioxidant activity assessed as ABTS radical scavenging activity at 8 uM relative to control; assay type: functional
[7] = tested on: SH-SY5Y; assay: Neuroprotective activity against OGD/R induced cell injury in human SH-SY5Y cells assessed as reduction in cell shrinkage at 1 uM pretreated with OGD/R for 4 hrs followed by compound addition and measured after 24 hrs by light microscopic analysis; assay type: functional, cell-based
[8] = tested on: Mus musculus; assay: Neuroprotective activity against tMCAO- induced brain injury in ICR mouse model assessed as restoration of pyramidal cells morphology at 10 mg/kg, ip by H and E staining based assay; assay type: functional, organism-based
[9] = tested on: Mus musculus; assay: Neuroprotective activity against tMCAO- induced brain injury in ICR mouse model assessed as appearance of regularly arranged neuronal nissl bodies at 10 mg/kg, ip by nissl staining based assay; assay type: functional, organism-based
[10] = tested on: Mus musculus; assay: Neuroprotective activity against tMCAO- induced brain injury in ICR mouse model assessed as appearance of abundant nissl granules at 10 mg/kg, ip by nissl staining based assay; assay type: functional, organism-based
[11] = tested on: Mus musculus; assay: Neuroprotective activity against tMCAO- induced brain injury in ICR mouse model assessed as reduction in infarct volume at 10 mg/kg, ip (reference value: 43.1%); assay type: functional; parameters: scale not given: the % may be the effect or the level left
[12] = tested on: Mus musculus; assay: Neuroprotective activity against tMCAO- induced brain injury in ICR mouse model assessed as restoration of pyramidal cells size at 10 mg/kg, ip by H and E staining based assay; assay type: functional, organism-based
[13] = Metal chelating activity assessed as Cu2+ chelation by UV-Vis spectroscopy
[14] = tested on: SH-SY5Y; assay: Neuroprotective activity against OGD/R induced cell injury in human SH-SY5Y cells assessed as reduction in cell crumpling at 1 uM pretreated with OGD/R for 4 hrs followed by compound addition and measured after 24 hrs by light microscopic analysis; assay type: functional, cell-based
[15] = species: Mus musculus; assay: Neuroprotective activity against tMCAO- induced brain injury in ICR mouse model assessed as appearance of tightly arranged neuronal cells in CA1 region by H and E staining based assay; assay type: functional, organism-based
[16] = Antioxidant activity assessed as DPPH radical scavenging activity measured after 30 mins; assay type: functional
[17] = Antioxidant activity assessed as DPPH radical scavenging activity measured after 30 mins by spectrophotometry assay; assay type: functional

| Compound | IC50 ([1]; read-out: IC50) [µM] | IC50 [2] [µM] | Activity [3] | Activity [4] [%] | viability at 1 µM [5] [%] | Activity [6] [%] | further results |
| --- | --- | --- | --- | --- | --- | --- | --- |
| Cc1nc(C)c(-n2nc(C(F)(F)F)cc2O)nc1C | > 120 | 19.7 | 1.34 | 30.6 | 75.4 | 55.6 |  |
| Cc1cc(O)n(-c2ncccc2C)n1 | 16.1 | 13.7 | 1.88 | 49.9 | 87 | 54.7 | Activity [7]: Active; Activity [8]: Active; Activity [9]: Active; Activity [10]: Active; Activity [11]: 24.9%; Activity [12]: Active; Activity [13]: Active; Activity [14]: Active; Activity [15]: Active |
| O=C(O)/C=C/c1ccc(O)c(O)c1 [CAFFEIC ACID] |  |  |  |  |  |  | IC50 [1]: 0.8 µg/mL |
| O=C1S/C(=C\c2cn(-c3ccccc3)nc2-c2ccc(O)cc2)C(=O)N1Cc1ccccc1 |  |  |  |  |  |  | IC50 [16]: 110.8 µg/mL (≈ 244 µM) |
| O=C(O)C1CS[C@@H](c2cccc(F)c2F)N1 (stereo not given in full) | 830 |  |  |  |  |  |  |
| Cc1cc(O)n(-c2ccc(CO)cn2)n1 | 32 | 20.5 | 0.8 | 34.7 | 81.7 | 46.4 |  |
| Cc1cc(O)n(-c2ccc(Cl)cn2)n1 | 18.8 | 14.8 | 1.27 | 53 | 73.4 | 52 |  |
| CC1=NN(c2ccccc2)C(=O)C1 [EDARAVONE] | 42.5 | 15.8 | 1.46 | 21.4 | 72.2 | 52.3 |  |
| COc1cc(/C=C/C(=O)CC(=O)/C=C/c2ccc(O)c(OC)c2)ccc1O [CURCUMIN] |  |  |  |  |  |  | IC50 [1]: 28 µg/mL |
| Oc1cc(C(F)(F)F)nn1-c1ncccn1 | 45.3 | 13.9 | 1.19 | 36.4 | 72.7 | 63.2 |  |
| Cc1cc(O)n(-c2cccc(CO)n2)n1 | 59.5 | 18.9 | 1.06 | 28.5 | 75.4 | 49.6 |  |
| O=C(c1cc(O)c(O)c(O)c1)c1cc(O)c(Br)cc1O |  |  |  |  |  |  | IC50 [1]: 14.4 µg/mL |
| Cc1cc(O)n(-c2ccccn2)n1 | 15.4 | 12.3 | 1.27 | 35.1 | 81.5 | 69.1 |  |
| Oc1cc(C(F)(F)F)nn1-c1ncccc1C(F)(F)F | > 120 | 35.5 | 1.22 | 34.7 | 70.8 | 36.1 |  |
| Oc1cc(C(F)(F)F)nn1-c1ccc(C(F)(F)F)cn1 | 35.8 | 14.8 | 1.1 | 28.4 | 84.5 | 68.1 |  |
| Cc1cc(O)n(-c2ncccc2C(F)(F)F)n1 |  |  | 0.98 | 2.85 | 77.4 | 5.92 |  |
| C[C@H]1[C@H](C)CC[C@]2(C(=O)O)CC[C@]3(C)C(=CC[C@@H]4[C@@]5(C)CC[C@H](O)C(C)(C)[C@@H]5CC[C@]43C)[C@H]12 [URSOLIC ACID] |  |  |  |  |  |  | IC50 [1]: 59 µg/mL |
| Oc1ccc(/C=C/c2cc(O)cc(O)c2)cc1 [RESVERATROL] |  |  |  |  |  |  | IC50 [17]: 65 µM |
| Oc1cc(C(F)(F)F)nn1-c1ncc(Cl)cc1Cl | > 120 | 20.4 | 1.3 | 29.4 | 76.6 | 46 |  |
| Oc1cc(C(F)(F)F)nn1-c1ncccc1Cl | > 120 | 19.5 | 1.13 | 28.1 | 78.8 | 40.4 |  |
| Cc1cc(O)n(-c2ncccc2Cl)n1 |  |  | 0.9 | 2.36 | 71.5 | 4.56 |  |
| Cc1cc(C)nc(-n2nc(C)cc2O)n1 | 18.5 | 14.6 | 1.56 | 51.6 | 74.7 | 63.9 |  |
| Cc1cc(O)n(-c2ccc(C(F)(F)F)cn2)n1 | 15.2 | 16.1 | 1.14 | 30.3 | 79.1 | 55 |  |
| Cc1cc(O)n(-c2ccc(F)cn2)n1 | 19.8 | 13.8 | 1.06 | 21.4 | 89.5 | 51.6 |  |
| Cc1c(C)c2c(c(C)c1O)CCC(C)(C(=O)O)O2 (stereo not given) |  |  | 1 |  |  |  |  |
| Oc1cc(C(F)(F)F)nn1-c1ncc(F)cn1 | 45.5 | 16.3 | 1.07 | 30.9 | 80.5 | 65.4 |  |
| Oc1cc(C(F)(F)F)nn1-c1ccc(F)cn1 | 43.1 | 16.6 | 1.19 | 35.7 | 71.8 | 58.3 |  |
| CC1=NN(c2ncc(Cl)cc2Cl)C(=O)C1 | > 120 | 19.4 | 1.42 | 6.73 | 82.5 | 31.9 |  |
| OCc1ccc(-n2nc(C(F)(F)F)cc2O)nc1 | 63.9 | 28 | 0.91 | 40.4 | 78.1 | 57.1 | Activity [11]: Not active; Showed Weak Activity |
